The source of these data is ChEMBL document CHEMBL3868637, “Treatment of HIV Infections with HIV Integrase Inhibitors” (ACS Med Chem Lett, 2017).

Series [1] can be described thus: Cytotoxicity against human MT4 cells assessed as reduction in cell viability measured after 5 days by CellTiter-Glo assay. Format: toxicity, cell-based. (In general: ATP-based viability assays read luminescence as a measure of living cells.)
The nature of series [2]: Inhibition of HIV 3B integrase infected in human MT4 cells assessed as reduction in viral replication after 5 days by CellTiter-Glo assay. The format is cell-based. The settings on record: Human immunodeficiency virus 1, 3B, MT4, 120 h.

With `O=C(NCc1c(F)cc(F)cc1F)c1cn2c(c(O)c1=O)C(=O)N1CCCC[C@]13COCC[C@H]23`, the CC50 at 120 h in series [1] amounted to 33.6 µM. Besides, in series [2], the EC50 was 0.00194 µM.
On to `O=C(NCc1ccc(F)c(Cl)c1F)c1cn2c(c(O)c1=O)C(=O)N1CCS[C@]13COCC[C@H]23`, for which the CC50 at 120 h in series [1] was 10.8 µM. Besides, the EC50 in series [2] is 0.0012 µM.
For `COc1c2n(cc(C(=O)NCc3ccc(F)c(Cl)c3F)c1=O)[C@H]1CCC[C@]13OCCN3C2=O`, the CC50 at 120 h in series [1] was determined as 4.94 µM. The EC50 in series [2] is 0.00253 µM.
For the compound `C[C@H]1CCO[C@]23CCC[C@H]2n2cc(C(=O)NCc4ccc(F)c(Cl)c4F)c(=O)c(O)c2C(=O)N13`, in series [1], the CC50 at 120 h turned out to be 17.5 µM. The EC50 in series [2] is 0.0118 µM.
Take `O=C(NCc1ccc(F)c(Cl)c1F)c1cn2c(c(O)c1=O)C(=O)N1CC=CC[C@]13CCOC[C@H]23`: in series [1], the CC50 at 120 h is 8.02 µM. Besides, the EC50 in series [2] was 0.00462 µM.
Taken in the same sequence, the figures for `C[C@@H]1CO[C@@]23CCOC[C@@H]2n2cc(C(=O)NCc4ccc(F)c(Cl)c4F)c(=O)c(O)c2C(=O)N13` were 7.53 µM and 0.00182 µM.

Usually CC50 stands for the concentration that lowers cell viability or growth by half. As a reminder, the EC50 is the concentration that produces a half-maximal response.
